From publication PMC6163981, “Novel and Selective Rhipicephalus microplus Triosephosphate Isomerase Inhibitors with Acaricidal Activity” (Veterinary Sciences, 2018)
Where “and” joins values, the source holds several entries; their conditions need not be identical. Equal values may be shown once. Entries after “also recorded” stand apart in the source; their conditions may differ. Read-outs that look alike come from different tables or passages of the source. One block for each compound: values may come before it.

Tests used:
[1] = molecular target: RmTIM (TIM from R. microplus) (Rhipicephalus microplus, UniProt A8B3A8); assay: biochemical
RmTIM (TIM from R. microplus), sequence (A8B3A8 1-249): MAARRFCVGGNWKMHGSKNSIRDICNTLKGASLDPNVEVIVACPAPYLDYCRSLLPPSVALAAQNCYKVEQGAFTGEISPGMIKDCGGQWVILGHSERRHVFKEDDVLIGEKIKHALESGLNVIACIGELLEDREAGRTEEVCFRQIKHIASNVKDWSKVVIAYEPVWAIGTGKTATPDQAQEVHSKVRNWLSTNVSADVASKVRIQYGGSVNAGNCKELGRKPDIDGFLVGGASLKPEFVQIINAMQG

[2] = test system: mice; conditions: cited from earlier work
[3] = test system: mice (strain B6D2F1); conditions: male, B6D2F1, mouse, in vivo
[4] = test system: mammalian TIMs (rabbit and human); assay: Mammalian TIM inhibition (rabbit and human, summarised); type: biochemical; conditions: 100 µM
[5] = test system: BME26 embryonic cells; assay: MTT viability assay on BME26 embryonic cells; type: cell-based, Rhipicephalus microplus; conditions: for IC50 / viability at 100 µM: Rhipicephalus microplus, 24 h, BME26, MTT; for IC50: read-out: IC50 in BME26 cells (In vitro anti-R. microplus); for viability at 100 µM: read-out: cell viability at 100 µM
[6] = molecular target: Rabbit TIM (RbTIM) (Oryctolagus cuniculus, UniProt P00939); assay: Rabbit TIM inhibition (selectivity); type: biochemical
Rabbit TIM (RbTIM), sequence (P00939 2-249 limits assumed): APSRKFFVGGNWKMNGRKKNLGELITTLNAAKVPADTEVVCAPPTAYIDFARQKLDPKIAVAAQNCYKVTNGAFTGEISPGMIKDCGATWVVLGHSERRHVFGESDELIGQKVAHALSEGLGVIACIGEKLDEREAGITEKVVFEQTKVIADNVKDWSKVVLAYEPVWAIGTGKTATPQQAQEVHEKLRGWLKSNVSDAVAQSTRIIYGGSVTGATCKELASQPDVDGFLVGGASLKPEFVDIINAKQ

[7] = molecular target: T1, Homo sapiens TIM (HsTIM, HmTIM [sic] in Table 1) (Homo sapiens, UniProt P60174); assay: Human TIM inhibition (selectivity); type: biochemical
T1 construct: made in house; host or cells: E. coli
T1 sequence (P60174 whole entry): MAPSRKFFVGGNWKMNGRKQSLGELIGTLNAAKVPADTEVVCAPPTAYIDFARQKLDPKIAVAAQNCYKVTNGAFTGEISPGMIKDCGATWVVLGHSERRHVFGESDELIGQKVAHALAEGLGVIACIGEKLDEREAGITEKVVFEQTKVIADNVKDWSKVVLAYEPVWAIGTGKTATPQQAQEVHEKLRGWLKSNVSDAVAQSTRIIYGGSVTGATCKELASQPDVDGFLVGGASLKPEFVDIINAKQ

[8] = test system: Trypanosoma cruzi TIM (TcTIM); conditions: previously obtained; cited from earlier work
[9] = design: method as in PMID 22803666; conditions: previous work; cited from earlier work
[10] = test system: BME26 embryonic cells; design: method as in PMID 24956999, PMID 22036897; conditions: widely used acaricide, comparison; cited from earlier work

IC50 ([1]; read-out: IC50 (µM) RmTIM): ~100 µM
Compound: C=CCn1c(-c2ccc(OC)cc2)cs/c1=N/N=C/c1ccc([N+](=O)[O-])s1 [Compound 70]

IC50 ([1]; read-out: IC50 (µM) RmTIM): ~100 µM
Compound: Cc1c(CNc2ccc3ccccc3c2)no[n+]1[O-] [Compound 146]

IC50 ([1]; read-out: IC50 (µM) RmTIM): 50 to 100 µM
Compound: O=C1C(=Cc2ccc([N+](=O)[O-])o2)C(=O)N(Cc2ccccc2)S(=O)(=O)N1Cc1ccccc1 [Compound 52]

IC50 ([1]; read-out: IC50 (µM) RmTIM): ~100 µM
Compound: O=C(N/N=C/c1c(-c2ccccc2)no[n+]1[O-])c1cnn(-c2ccccc2)c1 [Compound 134]

IC50 ([1]; read-out: IC50 (µM) RmTIM): ~100 µM
Compound: O=[N+]([O-])c1ccc(/C=C/C=N/NC(=S)Nc2ccccc2)o1 [Compound 99]

More lines, now with the values behind:

Compound: CC1(C)[N+]([O-])=c2ccc(/C=C/c3ccccc3)cc2=[N+]1[O-] [Compound 39]
IC50 ([1]; read-out: IC50 (µM) RmTIM): 50 to 100 µM

Compound: N#Cc1nn(-c2c(Cl)cc(C(F)(F)F)cc2Cl)c(N)c1[S+]([O-])C(F)(F)F (centres unmarked) [fipronil]
acute oral LD50 [2]: 91 mg/kg

Compound: O=C1C(=Cc2ccc([N+](=O)[O-])cc2)C(=O)N(Cc2ccccc2)S(=O)(=O)N1Cc1ccccc1 [Compound 50]
Toxicology: LD50 [3]: 3 mmol/kg body weight in mice | Mammalian Triosephosphate isomerase inhibition [4]: did not affect | IC50 [5]: 71 ± 8 µM | viability at 100 µM ([5]; 100 µM): 42% | inhibition at 100 µM [6]: 0% | inhibition at 100 µM [7]: 0% | IC50 ([1]; read-out: IC50 (µM) RmTIM): ~50 µM and 50 µM

Compound: C=CCNC(=S)N/N=C/c1ccc2c(c1)[n+]([O-])c(C)c(C)[n+]2[O-] [Compound 179]
IC50 ([1]; read-out: IC50 (µM) RmTIM): ~100 µM

Compound: Cc1ccc(-c2nsc(=O)[nH]2)cc1 [Compound 161]
effect on BME26 cells ([5]; MTT, 100 µM): did not have any effect; also recorded: no activity | viability at 100 µM ([5]; 100 µM): 100% | IC50 [8]: 4 µM | inhibition at 100 µM [6]: 0% | penetration of biological membranes [9]: cannot penetrate biological membranes | inhibition at 100 µM [7]: 28% | % Inhibition at 100 µM HmTIM ([7]; 100 µM): slight inhibitory activity | IC50 ([1]; read-out: IC50 (µM) RmTIM): 25 ± 3 µM

Compound: Cc1c(C=O)no[n+]1[O-] [Compound 136]
IC50 ([1]; read-out: IC50 (µM) RmTIM): ~100 µM

Compound: ivermectin
IC50 [10]: 3 µM

Compound: O=S(=O)(NCCc1ccccc1)NCCc1ccccc1 [Compound 62]
IC50 ([1]; IC50 (µM) RmTIM): 50 to 100 µM

Compound: Cc1ccc(/C=C/C=N/N2CCN(C/C=C/c3ccccc3)CC2)o1 [Compound 222]
IC50 ([1]; read-out: IC50 (µM) RmTIM): 50 to 100 µM

Compound: Clc1ccc(-c2csc(N/N=C/C=C/c3ccco3)n2)cc1 [Compound 81]
IC50 ([1]; read-out: IC50 (µM) RmTIM): 50 to 100 µM

Compound: O=C(N/N=C/C=C/c1ccc([N+](=O)[O-])o1)Nc1ccc2ccccc2c1 [Compound 98]
Toxicology: LD50 [3]: 3 mmol/kg body weight in mice | Mammalian Triosephosphate isomerase inhibition [4]: did not affect | IC50 [5]: 67 ± 4 µM | viability at 100 µM ([5]; 100 µM): 40% | inhibition at 100 µM [6]: 21% | inhibition at 100 µM [7]: 14% | IC50 ([1]; read-out: IC50 (µM) RmTIM): ~50 µM and 50 µM
